Source: US8003658B2, “Quinazoline derivatives for inhibiting cancer cell growth and method for the preparation thereof” (Hanmi Holdings Co., Ltd., priority 2004, dated 2011)
Read-outs that look alike come from different tables or passages of the source.

Tests used:
[1] = test system: SK-Br3 (ATCC: HTB-30); assay: Test of cancer cell growth inhibition (SRB), SK-Br3; details: read-out: IC50 SK-Br-3
[2] = test system: A431 (ATCC: CRL-1555); assay: Test of cancer cell growth inhibition (SRB), A431; details: read-out: IC50 A431
[3] = EGFR overexpressed A431, 72 hours, SRB

SMILES | IC50 ([1]; Homo sapiens, SK-BR-3, 72 h) [nM] | IC50 [2, 3] [nM] | IC50 ([2]; Homo sapiens, A-431, 72 h) [nM] | IC50 ([1]; Erb-B2 overexpressed SK-Br3, 72 hours, SRB) [nM]
C=CC(=O)N1CCC(C(=O)Nc2ccc3ncnc(Nc4ccc(OCc5ccccn5)c(Cl)c4)c3c2)CC1 [Example 156, 1-acryloyl-piperidine-4-carboxylic acid {4-[3-chloro-4-(pyridin-2-ylmethoxy)-phenylamino]-quinazolin-6-yl}-amide] | 19 | 513 | – | –
C=CC(=O)N1CCC[C@H]1C(=O)Nc1ccc2ncnc(Nc3ccc(Oc4ccc(C)nc4)c(C)c3)c2c1 [Example 157, (2S)-1-acryloyl-pyrrolidine-2-carboxylic acid {4-[3-methyl-4-(6-methyl-pyridin-3-yloxy)-phenylamino]-quinazolin-6-yl}-amide] | 123 | – | 5590 | –
C#Cc1cccc(Nc2ncnc3ccc(NC(=O)[C@@H]4CCCN4C(=O)C=C)cc23)c1 [Example 158, (2S)-1-acryloyl-pyrrolidine-2-carboxylic acid [4-(3-ethynyl-phenylamino)-quinazolin-6-yl]-amide] | 48 | – | 583 | –
C=CC(=O)N1CCC[C@H]1C(=O)Nc1ccc2ncnc(Nc3ccc(F)c(Cl)c3)c2c1 [Example 159, (2S)-1-acryloyl-pyrrolidine-2-carboxylic acid [4-(3-chloro-4-fluoro-phenylamino)-quinazolin-6-yl]-amide] | 223 | – | 462 | –
C=CC(=O)N1C[C@H](S(=O)(=O)CC)C[C@H]1C(=O)Nc1ccc2ncnc(Nc3ccc(OCc4ccccn4)c(Cl)c3)c2c1 [Example 160, (2S,4R)-1-acryloyl-4-ethanesulfonyl-pyrrolidine-2-carboxylic acid {4-[3-chloro-4-(pyridin-2-ylmethoxy)-phenylamino]-quinazolin-6-yl}-amide] | 437 | – | 6930 | –
C=CC(=O)N1C[C@H](OC)C[C@H]1C(=O)Nc1ccc2ncnc(Nc3ccc(OCc4ccccn4)c(Cl)c3)c2c1 [Example 161, (2S,4R)-1-acryloyl-4-methoxy-pyrrolidine-2-carboxylic acid {4-[3-chloro-4-(pyridin-2-ylmethoxy)-phenylamino]-quinazolin-6-yl}-amide] | 19 | – | 680 | –
C=CC(=O)N1CCCC(C(=O)Nc2ccc3ncnc(Nc4ccc(OCc5ccccn5)c(Cl)c4)c3c2)C1 (stereo not drawn) [Example 162, 1-acryloyl-piperidine-3-carboxylic acid {4-[3-chloro-4-(pyridin-2-ylmethoxy)-phenylamino]-quinazolin-6-yl}-amide] | 28 | 286 | – | –
C=CC(=O)N1CC(C(=O)Nc2ccc3ncnc(Nc4ccc(OCc5ccccn5)c(Cl)c4)c3c2)C1 [Example 163, 1-acryloyl-azetidine-3-carboxylic acid {4-[3-chloro-4-(pyridin-2-ylmethoxy)-phenylamino]-quinazolin-6-yl}-amide] | 60 | 1400 | – | –
C=CC(=O)N1CCCCC1C(=O)Nc1ccc2ncnc(Nc3ccc(OCc4ccccn4)c(Cl)c3)c2c1 (stereo not drawn) [Example 164, 1-acryloyl-piperidine-2-carboxylic acid {4-[3-chloro-4-(pyridin-2-ylmethoxy)-phenylamino]-quinazolin-6-yl}-amide] | 12 | 105 | – | –
C=CC(=O)N1CCC[C@H]1C(=O)Nc1cc2c(Nc3ccc(OCc4ccccn4)c(Cl)c3)ncnc2cc1F [Example 165, (2S)-1-acryloyl-pyrrolidine-2-carboxylic acid {4-[3-chloro-4-(pyridin-2-ylmethoxy)-phenylamino]-7-fluoro-quinazolin-6-yl}-amide] | 5 | – | 215 | –
C=CC(=O)N1CCC[C@H]1C(=O)Nc1cc2c(Nc3ccc(OCc4ccccn4)c(C)c3)ncnc2cc1OC [Example 168, (2S)-1-acryloyl-pyrrolidine-2-carboxylic acid {7-methoxy-4-[3-methyl-4-(pyridin-2-ylmethoxy)-phenylamino]-quinazolin-6-yl}-amide] | 6 | – | 68 | –

The next lines start with the values.

IC50 ([1]; Homo sapiens, SK-BR-3, 72 h) [nM] | IC50 [2, 3] [nM] | IC50 ([2]; Homo sapiens, A-431, 72 h) [nM] | IC50 ([1]; Erb-B2 overexpressed SK-Br3, 72 hours, SRB) [nM] | SMILES
24 | – | 79 | – | C=CC(=O)N1CCCC1CC(=O)Nc1cc2c(Nc3ccc(OCc4ccccn4)c(Cl)c3)ncnc2cc1OC (stereo not drawn) [Example 169, 2-(1-acryloyl-pyrrolidin-2-yl)-N-{4-[3-chloro-4-(pyridin-2-ylmethoxy)-phenylamino]-7-methoxy-quinazolin-6-yl}-acetamide]
2 | – | 199 | – | C=CC(=O)N1CCC[C@H]1C(=O)Nc1cc2c(Nc3ccc(OCc4ccccn4)c(Cl)c3)ncnc2cc1OCC [Example 170, (2S)-1-acryloyl-pyrrolidine-2-carboxylic acid {4-[3-chloro-4-(pyridin-2-ylmethoxy)-phenylamino]-7-ethoxy-quinazolin-6-yl}-amide]
31 | – | 306 | – | C=CC(=O)N1CCC[C@H]1C(=O)Nc1cc2c(Nc3ccc(OCc4ccccn4)c(Cl)c3)ncnc2cc1SCC [Example 171, (2S)-1-acryloyl-pyrrolidine-2-carboxylic acid {4-[3-chloro-4-(pyridin-2-ylmethoxy)-phenylamino]-7-ethylsulfanyl-quinazolin-6-yl}-amide]
4520 | – | ≥ 10000 | – | C=CC(=O)N1CCC[C@H]1C(=O)Nc1cc2c(Nc3ccc(OCc4ccccn4)c(Cl)c3)ncnc2cc1OCC1CC1 [Example 172, (2S)-1-acryloyl-pyrrolidine-2-carboxylic acid {4-[3-chloro-4-(pyridin-2-ylmethoxy)-phenylamino]-7-cyclopropylmethoxy-quinazolin-6-yl}-amide]
29 | – | 552 | – | C=CC(=O)N1CCC[C@H]1C(=O)Nc1cc2c(Nc3ccc(OCc4ccccn4)c(Cl)c3)ncnc2cc1OC1CCCC1 [Example 173, (2S)-1-acryloyl-pyrrolidine-2-carboxylic acid {4-[3-chloro-4-(pyridin-2-ylmethoxy)-phenylamino]-7-cyclopentyloxy-quinazolin-6-yl}-amide]
35 | – | 956 | – | C=CC(=O)NCCC(=O)Nc1ccc2ncnc(Nc3ccc(OCc4ccncc4)c(Cl)c3)c2c1 [Example 174, N-(2-{4-[3-chloro-4-(pyridin-4-ylmethoxy)-phenylamino]-quinazolin-6-ylcarbamoyl}-ethyl)-acrylamide]
– | 48 | – | 26 | COc1cc2ncnc(Nc3ccc(OCc4ccccn4)c(Cl)c3)c2cc1NC(=O)[C@@H]1CCCN1C(=O)C=CCN(C)C [Example 175, (2S)-1-(4-dimethylamino-buten-2-oyl)-pyrrolidine-2-carboxylic acid {4-[3-chloro-4-(pyridin-2-ylmethoxy)-phenylamino]-7-methoxy-quinazolin-6-yl}-amide]
34 | – | 517 | – | C=CC(=O)N1CCC[C@H]1C(=O)Nc1cc2c(Nc3ccc(OCc4ccccn4)c(Cl)c3)ncnc2cc1Cl [Example 176, (2S)-1-acryloyl-pyrrolidine-2-carboxylic acid {7-chloro-4-[3-chloro-4-(pyridin-2-ylmethoxy)-phenylamino]-quinazolin-6-yl}-amide]
9 | – | 78 | – | C=CC(=O)N1CCC[C@H]1C(=O)Nc1cc2c(Nc3ccc(OCc4ccccn4)c(C)c3)ncnc2cc1F [Example 177, (2S)-1-acryloyl-pyrrolidine-2-carboxylic acid {7-fluoro-4-[3-methyl-4-(pyridin-2-ylmethoxy)-phenylamino]-quinazolin-6-yl}-amide]
17 | – | 121 | – | C=CC(=O)N1CC=C[C@H]1C(=O)Nc1cc2c(Nc3ccc(OCc4ccccn4)c(Cl)c3)ncnc2cc1OC [Example 179, (2S)-1-acryloyl-2,5-dihydro-1H-pyrrol-2-carboxylic acid {4-[3-chloro-4-(pyridin-2-ylmethoxy)-phenylamino]-7-methoxy-quinazolin-6-yl}-amide]
63 | – | 438 | – | C=CC(=O)N1CSC[C@H]1C(=O)Nc1cc2c(Nc3ccc(OCc4ccccn4)c(Cl)c3)ncnc2cc1OC [Example 180, (4R)-3-acryloyl-thiazolidin-4-carboxylic acid {4-[3-chloro-4-(pyridin-2-ylmethoxy)-phenylamino]-7-methoxy-quinazolin-6-yl}-amide]
13 | 218 | – | – | C=CC(=O)N1CCC1C(=O)Nc1ccc2ncnc(Nc3ccc(OCc4ccccn4)c(Cl)c3)c2c1 (stereo not drawn) [Example 181, 1-acryloyl-azetidine-2-carboxylic acid {4-[3-chloro-4-(pyridin-2-ylmethoxy)-phenylamino]-quinazolin-6-yl}-amide]
9 | – | 128 | – | C=CC(=O)N1CCC1C(=O)Nc1cc2c(Nc3ccc(OCc4ccccn4)c(Cl)c3)ncnc2cc1OC (stereo not drawn) [Example 182, 1-acryloyl-azetidine-2-carboxylic acid {4-[3-chloro-4-(pyridin-2-ylmethoxy)-phenylamino]-7-methoxy-quinazolin-6-yl}-amide]
114 | – | 1420 | – | C=CC(=O)N1CCC[C@H]1C(=O)Nc1cc2c(Nc3ccc(OCc4ccccn4)c(Cl)c3)ncnc2cc1N(C)C [Example 184, (2S)-1-acryloyl-pyrrolidine-2-carboxylic acid {4-[3-chloro-4-(pyridin-2-ylmethoxy)-phenylamino]-7-dimethylamino-quinazolin-6-yl}-amide]
3 | – | 22 | – | C=CC(=O)N1CCC[C@H]1C(=O)Nc1cc2c(Nc3ccc4c(cnn4Cc4ccccn4)c3)ncnc2cc1OC [Example 185, (2S)-1-acryloyl-pyrrolidine-2-carboxylic acid [7-methoxy-4-(1-pyridin-2-ylmethyl-1H-indazol-5-ylamino)-quinazolin-6-yl]-amide]
8 | – | 26 | – | C=CC(=O)N1CCC[C@H]1C(=O)Nc1cc2c(Nc3ccc(OCc4ccccn4)c(C)c3)ncnc2cc1OCC [Example 186, (2S)-1-acryloyl-pyrrolidine-2-carboxylic acid {4-[3-methyl-4-(pyridin-2-ylmethoxy)-phenylamino]-7-ethoxy-quinazolin-6-yl}-amide]
